Experimental data as given in ChEMBL document CHEMBL2202954, “The effect of PLC-γ2 inhibitors on the growth of human tumour cells” (2012).

Tests used:
Type in all cases: functional
MDA-MB-231 = experiment: Cytotoxicity against human MDA-MB-231 cells assessed as cellular growth at 10 uM by SRB assay
DU-145 = experiment: Cytotoxicity against human DU145 cells assessed as cellular growth at 10 uM by SRB assay
CAKI-1 = experiment: Cytotoxicity against human Caki1 cells assessed as cellular growth at 10 uM by SRB assay
A498 = experiment: Cytotoxicity against human A498 cells assessed as cellular growth at 10 uM by SRB assay
IGROV-1 = experiment: Cytotoxicity against human IGROV1 cells assessed as cellular growth at 10 uM by SRB assay
UACC-62 = experiment: Cytotoxicity against human UACC62 cells assessed as cellular growth at 10 uM by SRB assay
SK-MEL-2 = experiment: Cytotoxicity against human SK-MEL-2 cells assessed as cellular growth at 10 uM by SRB assay
MDA-MB-435 = experiment: Cytotoxicity against human MDA-MB-435 cells assessed as cellular growth at 10 uM by SRB assay
Malme-3M = experiment: Cytotoxicity against human MALME-3M cells assessed as cellular growth at 10 uM by SRB assay
SF-295 = experiment: Cytotoxicity against human SF295 cells assessed as cellular growth at 10 uM by SRB assay
HT-29 = experiment: Cytotoxicity against human HT-29 cells assessed as cellular growth at 10 uM by SRB assay
COLO 205 = experiment: Cytotoxicity against human COLO205 cells assessed as cellular growth at 10 uM by SRB assay
EKVX = experiment: Cytotoxicity against human EKVX cells assessed as cellular growth at 10 uM by SRB assay
SR = experiment: Cytotoxicity against human SR cells assessed as cellular growth at 10 uM by SRB assay
MOLT-4 = experiment: Cytotoxicity against human MOLT4 cells assessed as cellular growth at 10 uM by SRB assay
HL-60(TB) = experiment: Cytotoxicity against human HL-60(TB) cells assessed as cellular growth at 10 uM by SRB assay
SN12C = experiment: Cytotoxicity against human SN12C cells assessed as cellular growth at 10 uM by SRB assay
OVCAR-5 = experiment: Cytotoxicity against human OVCAR5 cells assessed as cellular growth at 10 uM by SRB assay

Row | SMILES | Activity (MDA-MB-231) | Activity (DU-145) | Activity (CAKI-1) | Activity (A498) | Activity (IGROV-1) | Activity (UACC-62) | Activity (SK-MEL-2) | Activity (MDA-MB-435) | Activity (Malme-3M) | Activity (SF-295) | Activity (HT-29) | Activity (COLO 205) | Activity (EKVX) | Activity (SR) | Activity (MOLT-4) | Activity (HL-60(TB)) | Activity (SN12C) | Activity (OVCAR-5)
1 | Cc1cc(C)c(NC(=O)c2sc3nc4c(cc3c2N)C(=O)CCC4)c(C)c1 | 35.68% | 10.04% | -22.19% | -7.37% | 35.36% | 23.22% | 36.14% | -34.35% | 42.11% | -11.34% | 0.48% | -6.14% | 54.36% | 10.54% | 43.03% | 14.55% |  | 
2 | O=C(Nc1nc2ccc(Cl)cc2s1)c1ccc(Cl)cc1Cl | 114.66% | 108.4% | 79.85% | 93.8% | 103.26% | 96.19% | 116.07% | 94.59% | 109.41% | 76.92% | 94.25% | 114.96% | 82.69% | 98.17% | 93.88% | 92.55% | 113.76% | 98.11%
3 | Clc1ccc(-c2nc(-c3cccs3)no2)c(Cl)c1 |  | 99.3% | 81.96% | 110.86% | 66.78% | 88.98% | 122.72% | 110.83% | 102.62% | 107.44% |  | 106.21% | 72.63% |  |  |  | 100.86% | 
4 | Clc1cccc(-c2nc(-c3cccs3)no2)c1 | 84.18% | 97.4% | 99.54% | 107.84% | 77.14% | 88.07% | 103.17% | 106.73% | 111.38% | 108.42% | 95.99% | 109.49% | 85.39% | 100.52% | 96.35% | 108.47% | 100.21% | 
5 | Nc1c(C(=O)Nc2ccccc2)sc2nc3c(cc12)C(=O)CCC3 | 52.08% | 0.62% | 54.68% | 37.32% | 36.43% | 44.06% | 38.68% | -5.95% | 76.23% | -12.42% | 4.34% | -18.41% | 84.59% | 21.95% | 43.43% | 19.38% | 59.85% | 59.92%
6 | Cc1ccc(NC(=O)c2sc3nc4c(cc3c2N)C(=O)CCC4)cc1Cl | 113.04% | 108.78% | 85.93% | 97.9% | 105.54% | 108.17% | 112.11% | 99.15% | 112.49% | 79.97% | 97.53% | 127.7% | 86.19% | 105.35% | 107.73% | 105.82% | 119.21% | 100.98%
7 | COc1cccc(C(=O)Nc2nc3ccc(Cl)cc3s2)c1 | 95.48% | 104.09% | 68.42% | 86.56% | 74.3% | 87.44% | 108.68% | 34% | 95.69% | 67.73% | 80.12% | 105.5% | 81.47% | 61.65% | 83.68% | 68.73% | 101.74% | 108.78%
8 | O=c1/c(=C/c2ccccc2)sc2nc(-c3ccc(Cl)cc3Cl)nn12 |  | 108.27% | 96.38% | 108.54% | 102.56% | 103% | 117.96% | 119.04% | 121.75% | 123.35% |  | 123.34% | 110.01% |  |  |  | 106.99% | 
9 | O=c1/c(=C/c2ccccc2Cl)sc2nc(-c3ccccc3)nn12 | 90.97% | 92.88% | 98.22% |  | 96.71% | 83.77% | 100.14% | 78.08% | 92.95% | 99.98% | 112.54% | 113.47% | 99.45% | 45.36% | 69.85% | 66.88% | 94.39% | 119.68%
